Read-outs that look alike come from different tables or passages of the source.
Tests used:
[1] = TG/DTA thermal analysis; format: physicochemical; conditions: for 10% weight loss temperature: TG; for 10% weight loss temperature / Exothermic peak temperature in DTA measurement: air, 30° C. to 600° C., heating rate 10° C./min; for nature of the weight loss in TG/DTA: exothermic suggests decomposition reaction
Description: The measurement is performed in a temperature range of 30° C. to 600° C. at a heating rate of 10° C./min while introducing air at a flow rate of 200 mL/min using EXSTAR 6000 (manufactured by Seiko Instruments Inc.). As a gas chromatography mass spectrometer, 6890/5975 MSD (manufactured by Agilent Technologies, Inc.) was used. The following measurement conditions are used: column: DB-1 (15 m, diameter: 0.25 mm, membrane thickness: 0.1 μm); injection temperature: 280° C.; column temperature: initial temperature of 40° C., hold for 5 min, heated to 340° C. at the heating rate of 20° C./min, and hold at the same temperature; mass spectrometric unit: 5975MSD; MS detection mode: EI^+; quadrupole temperature: 150° C.; ion source temperature: 300° C.; mass scanning range: m/z 33-700; and calibration: PFTBA.
Ionic liquids obtained from Examples 2, 28, and 29 and Comparative Examples 16 and 17 were subjected to a TG measurement using EXSTAR 6000 (Seiko Instruments Inc.) (Examples 30 and 31, and Comparative Examples 18 and 19). Z-DOL was also subjected to the TG measurement (Comparative Example 20). Weight loss was measured while purging air in a temperature range of 30° C. to 600° C. at a heating rate of 10° C./min.
The TG/DTA measurement was performed in a temperature range of 30° C. to 600° C. at a heating rate of 10° C./min while introducing air at a flow rate of 200 mL/min using EXSTAR 6000 (manufactured by Seiko Instruments Inc.). As a gas chromatography mass spectrometer, 6890/5975 MSD (manufactured by Agilent Technologies, Inc.) was used. The following measurement conditions were used: column: DB-1 (15 m, diameter: 0.25 mm, membrane thickness: 0.1 μm); injection temperature: 280° C.; column temperature: initial temperature of 40° C., hold for 5 min, heated to 340° C. at the heating rate of 20° C./min, and hold at the same temperature; mass spectrometric unit: 5975MSD; MS detection mode: EI^+; quadrupole temperature: 150° C.; ion source temperature: 300° C.; mass scanning range: m/z 33-700; and calibration: PFTBA.

[2] = acid dissociation constant (pKa) in acetonitrile; format: physicochemical
From the text: […]. Note that, the pKa values in acetonitrile is described in, for example, Blackwell Scientific Publications, Oxford, 1990, and J. Org. Chem. 2011, Vol. 76, pp. 391-395.
Although the acid dissociation constant in acetonitrile is not described herein because it is described in J. Org. Chem. 1998, 63, p. 7868 or J. Org. Chem. 1997, 62, p. 8479, it can be obtained by dissolving an acid in acetonitrile, titrating the resultant with a base, and measuring a spectrum by means of a UV-vis spectrometer.

[3] = acid dissociation constant (pKa) in water
From the text: As used herein, pKa refers to an acid dissociation constant, i.e., an acid dissociation constant in water or an acid dissociation constant in acetonitrile.
The acid dissociation constant in water can be measured, for example, with reference to the method described in J. Chem. Res., Synop. […] Specifically, it can be measured by a combination of a spectrometer with potentiometry.

[4] = cited from earlier work

| SMILES | 10% weight loss temperature [1] [°C] | nature of the weight loss in TG/DTA [1] | ΔpKa [2] | pKa of Bronsted acid ([3]; in water) | further results |
| --- | --- | --- | --- | --- | --- |
| C1CCC2=NCCCN2CC1.O=S(=O)(O)C(F)(F)C(F)(F)C(F)(F)C(F)(F)C(F)(F)C(F)(F)C(F)(F)C(F)(F)F [Comparative ionic liquid 8, DBU pentadecafluorooctane sulfonic acid salt, reference compound] | 393 | exothermic | 23.6 | – | Exothermic peak temperature in DTA measurement [1]: 432 °C |
| CCCCCCCCCCCCCCCCCCN.O=S(=O)(NS(=O)(=O)C(F)(F)C(F)(F)C(F)(F)C(F)(F)F)C(F)(F)C(F)(F)C(F)(F)C(F)(F)F [Ionic liquid 13, n-octadecylamine-bisnonafluorobutane sulfonylimide salt] | 331 | exothermic | 18.3 | – | – |
| CCCCCCCCCCCCCCCCCC(=O)O [stearic acid] | – | – | – | – | pKa ([3]; water): 5 |
| CCCCCCCCCCCCCCCCCCN.O=C(O)C(F)(F)F [Comparative ionic liquid 1, reference compound] | – | – | – | 0.5 | – |
| CCCCCCCCCCCCCCCCCCN.O=S(=O)(O)C(F)(F)C(F)(F)C(F)(F)C(F)(F)C(F)(F)C(F)(F)C(F)(F)C(F)(F)F [Ionic liquid 10] | 327 | – | – | −3.3 | pKa of Bronsted base ([3]; in water): 10.7 |
| CCCCCCCCCCCCCCCCCCN.OCC(F)(F)C(F)(F)C(F)(F)C(F)(F)C(F)(F)C(F)(F)C(F)(F)F [Comparative ionic liquid 7, reference compound] | 62 | – | – | 7-9 | pKa of Bronsted base ([3]; in water): 10.7; ΔpKa (pKa value of Bronsted base minus pKa value of Bronsted acid) ([3]; in water): ≤ 4; ΔpKa (pKa value of Bronsted base minus pKa value of Bronsted acid) ([3]; in water, listed as Comparative Example 17): 1.7-3.7 |
| CCCCCCCCCCCCCCCCCCN.O=S1(=O)NS(=O)(=O)C(F)(F)C(F)(F)C1(F)F [Ionic liquid 14, n-octadecylamine-cyclo-hexafluoropropane-1,3-bis(sulfonyl)imide salt] | 347 | exothermic | 19.2 | – | Exothermic peak temperature in DTA measurement [1]: 417 °C |
| CCCCCCCCCCCCCCCCCCN.O=C(O)C(F)(F)C(F)(F)C(F)(F)C(F)(F)C(F)(F)C(F)(F)C(F)(F)F [Comparative ionic liquid 2, reference compound] | – | – | – | – | pKa of Bronsted acid [3]: 2.5 |
| CCCCCCCCCCCCCCCCCCN1CCCN2CCCN=C12.O=S1(=O)NS(=O)(=O)C(F)(F)C(F)(F)C1(F)F [Ionic liquid 18, C18-TBD cyclo-hexafluoropropane-1,3-bis(sulfonyl)imide salt] | 380 | exothermic | 26.4 | – | – |
| CCCCCCCCCCCCCCCCCCN [octadecylamine] | – | – | – | – | pKa ([3]; water): 10.7 |
| CCCCCCCCCCCCCCCCCCC1CCCCN2CCCN=C12.O=S(=O)(O)C(F)(F)C(F)(F)C(F)(F)C(F)(F)C(F)(F)C(F)(F)C(F)(F)C(F)(F)F (stereo not drawn) [Ionic liquid 15, 6-n-octadecyl-1,8-diazabicyclo[5.4.0]-7-undecene (C18-DBU) pentadecafluorooctane sulfonic acid salt] | 384 | exothermic | 23.6 | – | – |
| CCCCCCCCCCCCCCCCCCN.CS(=O)(=O)O [Ionic liquid 4] | – | – | – | −2 | – |
| c1c[nH]cn1 [imidazole] | – | – | – | – | pKa value ([4]; solvent not stated): 14 |
| CCCCCCCCCCCCCCCCCCN.O=S(=O)(O)O [Ionic liquid 3] | – | – | – | −3 | – |
| CCCCCCCCCCCCCCCCCCN1CCCN2CCCN=C12.O=S(=O)(O)C(F)(F)C(F)(F)C(F)(F)C(F)(F)C(F)(F)C(F)(F)C(F)(F)C(F)(F)F [Ionic liquid 17, 7-n-octadecyl-1,5,7-triazabicyclo[4.4.0]-5-decene (C18-TBD) pentadecafluorooctane sulfonic acid salt] | 381 | exothermic | 24.8 | – | – |
| CCCCCCCCCCCCCCCC1CCCCN2CCCN=C12.O=S(=O)(O)C(F)(F)C(F)(F)C(F)(F)C(F)(F)C(F)(F)C(F)(F)C(F)(F)C(F)(F)F [Ionic liquid 11] | 372 | – | – | −3.3 | increase of 10% weight loss temperature ([1]; DBU derivative instead of stearylamine as Bronsted base): 45 °C; 10% weight loss temperature higher than that of Z-DOL ([1]; difference to Z-DOL): ≥ 200 °C; pKa of Bronsted base ([3]; in water): 12.5 |
| CCCCCCCCCCCCCCCCCCN.O=C(O)C(F)(F)C(F)(F)C(F)(F)C(F)(F)C(F)(F)C(F)(F)C(F)(F)F [Comparative ionic liquid 6, reference compound] | 205 | – | – | – | pKa of Bronsted base ([3]; in water): 10.7; pKa of Bronsted acid ([3]; in water, listed as Comparative Example 16): 3.8 |
| C1CCC2=NCCCN2CC1 [DBU, 1,8-diazabicyclo(5,4,0)-undecene-7] | – | – | – | – | pKa value ([4]; in water, cyclic amidine base): 12.5 |
| C1CN=C2NCCCN2C1.O=S(=O)(O)C(F)(F)C(F)(F)C(F)(F)C(F)(F)C(F)(F)C(F)(F)C(F)(F)F [Comparative ionic liquid 9, TBD pentadecafluoro sulfonic acid salt, reference compound] | 371 | exothermic | 24.8 | – | Exothermic peak temperature in DTA measurement [1]: 425 °C |
| O=C(O)C(F)(F)C(F)(F)C(F)(F)C(F)(F)C(F)(F)C(F)(F)C(F)(F)F [perfluorooctanoic acid] | – | – | – | – | pKa [3]: 2.5 |
| CCCCCCCCCCCCCCCCCCN.O=S(=O)(NS(=O)(=O)C(F)(F)F)C(F)(F)F [Ionic liquid 1, n-octadecylamine-bistrifluoromethane sulfonylimide salt] | 329 | exothermic | 17.9 | – | – |
| CCCCCCCCCCCCCCCCCCC1CCCCN2CCCN=C12.O=S1(=O)NS(=O)(=O)C(F)(F)C(F)(F)C1(F)F (stereo not drawn) [Ionic liquid 16, C18-DBU cyclo-hexafluoropropane-1,3-bis(sulfonyl)imide salt] | 386 | exothermic | 25.2 | – | Exothermic peak temperature in DTA measurement [1]: 474 °C |
| CCCCCCCCCCCCCCCCCC(=O)O.CCCCCCCCCCCCCCCCCCN [Comparative ionic liquid 3, reference compound] | – | – | – | 5.0 | – |

Reference: patent US10047091B2, “Ionic liquid, lubricating agent, and magnetic recording medium” (Dexerials Corporation, priority 2012, dated 2018)
